16 molecules from ChEMBL document CHEMBL4024742, “Pharmaceutical Approaches to Target Antibiotic Resistance Mechanisms” (J Med Chem, 2017) can be followed below.

Broadly, the inhibition is the drop in the measured response relative to a control, in per cent. For orientation: IC50 means the concentration at which inhibition is half-maximal. One may read the Ki as the equilibrium dissociation constant of an inhibitor or competing ligand from its target.

Assay [1] has as its system Staphylococcus aureus. Briefly: Inhibition of biofilm formation in Staphylococcus aureus ATCC 29213 at 1.5 ug/ml after 24 hrs by MTT assay. Format: functional. To be noted: ATCC 29213, 24 h.
Assay [2] concerns Staphylococcus aureus. As to the kind of experiment: Inhibition of biofilm formation in Staphylococcus aureus ATCC 25923 at 1.5 ug/ml after 24 hrs by MTT assay. To be noted: ATCC 25923, 24 h. Format: functional. In general terms: Tetrazolium assays rely on reduction of a dye to a coloured formazan, in cell work by metabolically active cells.
The subject of assay [3] is Staphylococcus aureus. Briefly: Inhibition of biofilm formation in Staphylococcus aureus ATCC 657 at 1.5 ug/ml after 24 hrs by MTT assay. Format: functional. The note with it: ATCC 657, 24 h.
The subject of assay [4] is Staphylococcus aureus. As to the kind of experiment: Inhibition of biofilm formation in Staphylococcus aureus ATCC 702 at 1.5 ug/ml after 24 hrs by MTT assay. Format: functional. To be noted: ATCC 702, 24 h.
Assay [5] deals with Staphylococcus epidermidis. As to the kind of experiment: Inhibition of biofilm formation in Staphylococcus epidermidis DSM 3269 at 1.5 ug/ml after 24 hrs by MTT assay. Format: functional. To be noted: DSM 3269, 24 h.
Assay [6] concerns Staphylococcus epidermidis. Briefly: Inhibition of biofilm formation in Staphylococcus epidermidis RP62A at 1.5 ug/ml after 24 hrs by MTT assay. Format: functional.
In assay [7] the test system is Escherichia coli. Briefly: Antibacterial activity against multi drug-resistant Escherichia coli KG4 after 24 hrs by serial dilution method. Format: functional. The note with it: KG4, 24 h.
The subject of assay [8] is Escherichia coli. Briefly: Antibacterial activity against multi drug-resistant Escherichia coli KG1 after 24 hrs by serial dilution method. Format: functional. To be noted: KG1, 24 h.
The test system of assay [9] is Escherichia coli. As to the kind of experiment: Antibacterial activity against multi drug-resistant Escherichia coli EM5 mutant after 24 hrs by serial dilution method. Format: functional.
The subject of assay [10] is Escherichia coli. As to the kind of experiment: Antibacterial activity against multi drug-resistant Escherichia coli EM7 mutant after 24 hrs by serial dilution method. Format: functional.
Assay [11] has as its system Escherichia coli. As to the kind of experiment: Antibacterial activity against multi drug-sensitive Escherichia coli MTCC 739 after 24 hrs by serial dilution method. The note with it: MTCC 739, 24 h. Format: functional.
Assay [12] concerns Escherichia coli. Briefly: Potentiation of tetracycline induced-antimicrobial activity against Escherichia coli assessed as fold reduction in tetracycline MIC at 25 ug/ml after 24 hrs by broth checkerboard method. Format: functional.
Assay [13] has as its system Staphylococcus aureus. Briefly: Antibiofilm activity against methicillin-resistant Staphylococcus aureus BAA-44 at 100 uM after 24 hrs by crystal violet staining based assay. Format: functional. The note with it: BAA-44, 24 h.
Assay [14] has as its system Staphylococcus aureus. As to the kind of experiment: Antibiofilm activity against methicillin-resistant Staphylococcus aureus BAA-44 after 24 hrs by crystal violet staining based assay. Format: functional. To be noted: BAA-44, 24 h.
A short description of assay [15]: Inhibition of Klebsiella pneumoniae NP6 KPC-2 expressed in Escherichia coli DH5alpha.
Assay [16] in a line: Inhibition of bacterial IMP-1 using nitrocefin as substrate. More on the design: species or system Bacteria.
The subject of assay [17] is Staphylococcus aureus. As to the kind of experiment: Antibacterial activity against Staphylococcus aureus ATCC 25923 after 24 hrs by broth microdilution method. Format: functional. To be noted: ATCC 25923, 24 h. (In broth dilution the organism is exposed to a series of concentrations in liquid medium.)
In assay [18] the test system is Staphylococcus aureus. Briefly: Antibacterial activity against Staphylococcus aureus 1199B after 24 hrs by broth microdilution method. Format: functional.
In assay [19] the target is T1, Quinolone resistance protein NorA (Staphylococcus aureus) (UniProt P0A0J7).
T1 sequence (whole entry): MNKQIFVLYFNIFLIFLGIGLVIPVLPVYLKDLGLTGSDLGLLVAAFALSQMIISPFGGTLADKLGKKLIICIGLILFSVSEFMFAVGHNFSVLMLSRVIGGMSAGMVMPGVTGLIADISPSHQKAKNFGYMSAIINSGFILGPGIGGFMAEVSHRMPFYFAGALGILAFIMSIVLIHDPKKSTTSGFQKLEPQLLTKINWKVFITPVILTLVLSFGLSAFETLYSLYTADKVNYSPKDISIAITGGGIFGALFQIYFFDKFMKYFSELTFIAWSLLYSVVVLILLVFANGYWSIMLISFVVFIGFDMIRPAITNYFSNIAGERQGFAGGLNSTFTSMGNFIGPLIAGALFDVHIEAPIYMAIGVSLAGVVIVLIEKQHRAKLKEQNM
Briefly: Inhibition of Staphylococcus aureus 1199B NorA assessed as potentiation of ciprofloxacin-induced antibacterial activity at 0.5 ug/ml after 24 hrs.

Assay [20] concerns the target T1, Quinolone resistance protein NorA (Staphylococcus aureus). As to the kind of experiment: Inhibition of Staphylococcus aureus 1199B NorA assessed as potentiation of ciprofloxacin-induced antibacterial activity at 2 ug/ml after 24 hrs.
Assay [21] has as its target T2, Quinolone resistance protein NorA (Staphylococcus aureus, UniProt P0A0J7).
T2 sequence (P0A0J7 whole entry): T1 sequence (whole entry)
As to the kind of experiment: Inhibition of Staphylococcus aureus 1199B NorA assessed as reduction in ethidium bromide efflux by fluorescence assay.

The nature of assay [22]: Inhibition of bacterial AmpC. Also noted: species or system Bacteria.
For assay [23], the system named is Staphylococcus epidermidis. As to the kind of experiment: Antibacterial activity against planktonic Staphylococcus epidermidis RP62A after 24 hrs by broth microdilution method. Format: functional.
For assay [24], the system named is Staphylococcus aureus. As to the kind of experiment: Antibacterial activity against planktonic Staphylococcus aureus ATCC 29213 after 24 hrs by broth microdilution method. Format: functional. The note with it: ATCC 29213, 24 h.
Assay [25] deals with Staphylococcus aureus. As to the kind of experiment: Antibacterial activity against planktonic Staphylococcus aureus ATCC 43866 after 24 hrs by broth microdilution method. Format: functional. The note with it: ATCC 43866, 24 h.
Assay [26] deals with Staphylococcus aureus. As to the kind of experiment: Inhibition of biofilm formation in Staphylococcus aureus ATCC 43866 at 25 ug/ml after 24 hrs by MTT assay. Format: functional. To be noted: ATCC 43866, 24 h.

Values after ≈ are worked out from the molar mass of the structure shown.

`O=C(c1cc(Cl)cc(Cl)c1O)c1[nH]c(Br)c(Br)c1Br`: the inhibition at 1.5 µg/mL (in the assay with Staphylococcus aureus [1]; with Staphylococcus aureus [2]; with Staphylococcus aureus [3]; in the assay with Staphylococcus aureus [4]; in [5]; in assay [6]) was 67.9 to 86.7% each time.

With `COc1cc(C(=O)O[C@H]2CCC(=O)c3ccccc32)cc(OC)c1OC` [4-O-(3,4,5-TRIMETHOXYBENZOYL)-ALPHA-TETRALONE], the MIC in the assay on Escherichia coli [7], against Escherichia coli [8], against Escherichia coli [9], in the assay on Escherichia coli [10] and in the assay on Escherichia coli [11] was 250 to 1000 µg/mL (≈ 702 to 2810 µM) in each case. The “fold change (FC)” value in the assay on Escherichia coli [12] worked out at 8.

In the assay with Staphylococcus aureus [13], `C/C(=C\c1cccc2ccccc12)Cn1cc(CCCCCc2c[nH]c(N)n2)nn1` returned an inhibition at 100 µM of over 94%. In the assay on Staphylococcus aureus [14], this molecule gave an IC50 of 9.86 µM.

In the case of `CC(=O)Nc1ccc(S(=O)(=O)Nc2ccccc2NS(=O)(=O)c2ccc(NC(C)=O)cc2)cc1`, the midpoint of inhibition in [15], the IC50, lay at 200 µM.

`O=C(O)[C@@H](Cc1ccc2c(c1)OCO2)[C@@H](Cc1ccc2c(c1)OCO2)C(=O)O` came in with a concentration for half-maximal inhibition (IC50) in assay [16] of 200 µM.

Take `CC(C)(C)OC(=O)NCC(NC(=O)C(=O)c1c[nH]c2ccccc12)c1c[nH]c2ccccc12` (stereo not drawn): the MIC against Staphylococcus aureus [17] was over 32 µg/mL; in the assay on Staphylococcus aureus [18], over 32 µg/mL; in [19] it was 4 µg/mL; in assay [20], 2 µg/mL.

Regarding `O=C(c1cc(Cl)cc(Cl)c1O)c1[nH]c(Cl)c(Cl)c1Cl`, the inhibition at 1.5 µg/mL (with Staphylococcus aureus [1]; with Staphylococcus aureus [2]; in the assay on Staphylococcus aureus [3]; in the assay with Staphylococcus aureus [4]; in assay [5]; in assay [6]) was over 60% throughout.

In assay [16], `O=C(O)[C@H](Cc1ccc2c(c1)OCO2)[C@@H](Cc1ccc2c(c1)OCO2)C(=O)O` had an IC50 of 0.21 µM.

In the case of `COC(=O)[C@H]1[C@H]2C[C@@H]3c4[nH]c5cc(OC)ccc5c4CCN3C[C@H]2C[C@@H](OC(=O)c2cc(OC)c(OC)c(OC)c2)[C@@H]1OC` [RESERPINE], the half-maximal inhibitory concentration (IC50) in assay [21] lay in the range of 9 to 14 µM.

Molecule `C[C@]1(Cn2ccnn2)[C@H](C(=O)O)N2C(=O)C[C@H]2S1(=O)=O` [TAZOBACTAM] came in with an IC50 in assay [15] of 99 µM.

With `O=C(O)[C@@H](Cc1ccc2c(c1)OCO2)[C@H](Cc1ccc2c(c1)OCO2)C(=O)O`, the IC50 in assay [16] was in the range of 0.0027 to 0.009 µM.

As for `CC(C)(C)OC(=O)NCC(NC(=O)c1c[nH]c2ccccc12)c1c[nH]c2ccccc12` (stereo not drawn), the MIC against Staphylococcus aureus [17] and in the assay on Staphylococcus aureus [18] was over 32 µg/mL throughout.

For the molecule `O=S(=O)(NCB(O)O)c1ccc(-c2nnn[nH]2)cc1C(F)(F)F`, the Ki in assay [22] is 0.05 nM.

As for `Cc1nn(C)c([N-]C(=O)c2ccc(Cl)cc2)c1[N+]#N`, the MIC (in assay [23]; against Staphylococcus aureus [24]; in the assay on Staphylococcus aureus [25]) was 1.5 to 12.5 µg/mL (≈ 5.44 to 45.3 µM) in each case. Further, in the assay on Staphylococcus aureus [26], the inhibition at 25 µg/mL lay in the range of 69 to 96%.

With `CCCCCCCCCCCCCC(=O)O[C@H]1CCC(=O)c2ccccc21` [4-O-MYRICITOYL-ALPHA-TETRALONE], the MIC with Escherichia coli [7], against Escherichia coli [8], in the assay on Escherichia coli [9], in the assay with Escherichia coli [10] and against Escherichia coli [11] was 250 to 1000 µg/mL (≈ 671 to 2680 µM) each time.

Turning to `O=C(c1cc(Br)ccc1O)c1[nH]c(Br)c(Cl)c1Br`, the inhibition at 1.5 µg/mL (with Staphylococcus aureus [1]; with Staphylococcus aureus [2]; in the assay on Staphylococcus aureus [3]; with Staphylococcus aureus [4]; in [5]; in [6]) was over 60% each time.
